Measured values published in ChEMBL document CHEMBL3596193, “Pradimicin A, a D-mannose-binding antibiotic, binds pyranosides of L-fucose and L-galactose in a calcium-sensitive manner” (Bioorg Med Chem Lett, 2015).

Experiments:
[1] = Binding affinity to D-Glucose assessed as molar ratio of sugar to compound in aggregate at pH 4.5 by co-precipitation method in presence of Ca2+
[2] = Binding affinity to D-Mannose assessed as molar ratio of sugar to compound in aggregate at 2 umol at pH 6 by 1H NMR analysis in presence of 20 umol CaCl2
[3] = Binding affinity to alpha-D-Mannose-OMe assessed as molar ratio of sugar to compound in aggregate at 2 umol at pH 6 by 1H NMR analysis in presence of 20 umol CaCl2
[4] = Binding affinity to beta-D-Mannose-OMe assessed as molar ratio of sugar to compound in aggregate at 2 umol at pH 6 by 1H NMR analysis in presence of 20 umol CaCl2
[5] = Binding affinity to D-Arabinose assessed as molar ratio of sugar to compound in aggregate at 2 umol at pH 6 by 1H NMR analysis in presence of 20 umol CaCl2
[6] = Binding affinity to D-Glucose assessed as molar ratio of sugar to compound in aggregate at 2 umol at pH 6 by 1H NMR analysis in presence of 20 umol CaCl2
[7] = Binding affinity to alpha-D-Glucose-OMe assessed as molar ratio of sugar to compound in aggregate at 2 umol at pH 6 by 1H NMR analysis in presence of 20 umol CaCl2
[8] = Binding affinity to L-[…] assessed as molar ratio of sugar to compound in aggregate at 2 umol at pH 6 by 1H NMR analysis in presence of 20 umol CaCl2
[9] = Binding affinity to alpha-L-[…]-OMe assessed as molar ratio of sugar to compound in aggregate at 2 umol at pH 6 by 1H NMR analysis in presence of 20 umol CaCl2
[10] = Binding affinity to beta-L-[…]-OMe assessed as molar ratio of sugar to compound in aggregate at 2 umol at pH 6 by 1H NMR analysis in presence of 20 umol CaCl2
[11] = Binding affinity to L-Galactose assessed as molar ratio of sugar to compound in aggregate at 2 umol at pH 6 by 1H NMR analysis in presence of 20 umol CaCl2
[12] = Binding affinity to alpha-L-Galactose-OMe assessed as molar ratio of sugar to compound in aggregate at 2 umol at pH 6 by 1H NMR analysis in presence of 20 umol CaCl2
[13] = Binding affinity to beta-L-Galactose-OMe assessed as molar ratio of sugar to compound in aggregate at 2 umol at pH 6 by 1H NMR analysis in presence of 20 umol CaCl2
[14] = Binding affinity to D-Mannose assessed as molar ratio of sugar to compound in aggregate at 2 umol at pH 6 incubated at 60 degC for 15 mins, room temperature for 1 hr, and 4 degC for 1 hr by co-precipitation method in presence of 100 umol CaCl2
[15] = Binding affinity to alpha-D-Mannose-OMe assessed as molar ratio of sugar to compound in aggregate at 2 umol incubated at 60 degC for 15 mins, room temperature for 1 hr, and 4 degC for 1 hr by co-precipitation method in presence of 100 umol CaCl2
[16] = Binding affinity to beta-D-Mannose-OMe assessed as molar ratio of sugar to compound in aggregate at 2 umol incubated at 60 degC for 15 mins, room temperature for 1 hr, and 4 degC for 1 hr by co-precipitation method in presence of 100 umol CaCl2
[17] = Binding affinity to L-[…] assessed as molar ratio of sugar to compound in aggregate at 2 umol incubated at 60 degC for 15 mins, room temperature for 1 hr, and 4 degC for 1 hr by co-precipitation method in presence of 100 umol CaCl2
[18] = Binding affinity to alpha-L-[…]-OMe assessed as molar ratio of sugar to compound in aggregate at 2 umol incubated at 60 degC for 15 mins, room temperature for 1 hr, and 4 degC for 1 hr by co-precipitation method in presence of 100 umol CaCl2
[19] = Binding affinity to beta-L-[…]-OMe assessed as molar ratio of sugar to compound in aggregate at 2 umol incubated at 60 degC for 15 mins, room temperature for 1 hr, and 4 degC for 1 hr by co-precipitation method in presence of 100 umol CaCl2
[20] = Binding affinity to L-Galactose assessed as molar ratio of sugar to compound in aggregate at 2 umol incubated at 60 degC for 15 mins, room temperature for 1 hr, and 4 degC for 1 hr by co-precipitation method in presence of 100 umol CaCl2
[21] = Binding affinity to alpha-L-Galactose-OMe assessed as molar ratio of sugar to compound in aggregate at 2 umol incubated at 60 degC for 15 mins, room temperature for 1 hr, and 4 degC for 1 hr by co-precipitation method in presence of 100 umol CaCl2
[22] = Binding affinity to beta-L-Galactose-OMe assessed as molar ratio of sugar to compound in aggregate at 2 umol incubated at 60 degC for 15 mins, room temperature for 1 hr, and 4 degC for 1 hr by co-precipitation method in presence of 100 umol CaCl2
[23] = Binding affinity to Alpha-D-Mannose-OMe assessed as molar ratio of sugar to compound in aggregate at pH 4.5 by co-precipitation method in presence of Ca2+

CN[C@@H]1[C@H](O[C@@H]2OC[C@@H](O)[C@H](O)[C@H]2O)[C@@H](O)[C@H](O[C@H]2c3cc(C)c(C(=O)N[C@H](C)C(=O)O)c(O)c3-c3c(cc4c(c3O)C(=O)c3cc(OC)cc(O)c3C4=O)[C@@H]2O)O[C@@H]1C
Activity [1]: 0.57 molar ratio
Activity [2]: 1.07 molar ratio
Activity [3]: 1.13 molar ratio
Activity [4]: 1.15 molar ratio
Activity [5]: 1.14 molar ratio
Activity [6]: < 0.1 molar ratio
Activity [7]: < 0.1 molar ratio
Activity [8]: < 0.1 molar ratio
Activity [9]: 0.28 molar ratio
Activity [10]: 0.52 molar ratio
Activity [11]: < 0.1 molar ratio
Activity [12]: 0.32 molar ratio
Activity [13]: 0.6 molar ratio
Activity [14]: 1.08 molar ratio
Activity [15]: 1.11 molar ratio
Activity [16]: 1.08 molar ratio
Activity [17]: < 0.1 molar ratio
Activity [18]: < 0.1 molar ratio
Activity [19]: < 0.1 molar ratio
Activity [20]: < 0.1 molar ratio
Activity [21]: < 0.1 molar ratio
Activity [22]: < 0.1 molar ratio
Activity [23]: 1.08 molar ratio
